Assays:
[1] = Ferric reducing/antioxidant power (FRAP) assay; details: ferrous ion equivalents per gram of test compound; triplicate
Description: The ferric reducing/antioxidant power (FRAP) assay was performed based on a previous study.[[15a]] […] A standard curve was drawn to analyze different concentrations of ferrous sulfate (0.1–1 mM). The analysis was conducted in triplicates and the value of antioxidant activity results were expressed in mmol ferrous ion equivalents per gram of test compounds (mmol Fe^2+/g).

BChE = BChE (Homo sapiens, UniProt P06276); experiment: BChE inhibition assay (Ellman's method); type: biochemical
BChE, sequence (P06276 29-602, species assumed): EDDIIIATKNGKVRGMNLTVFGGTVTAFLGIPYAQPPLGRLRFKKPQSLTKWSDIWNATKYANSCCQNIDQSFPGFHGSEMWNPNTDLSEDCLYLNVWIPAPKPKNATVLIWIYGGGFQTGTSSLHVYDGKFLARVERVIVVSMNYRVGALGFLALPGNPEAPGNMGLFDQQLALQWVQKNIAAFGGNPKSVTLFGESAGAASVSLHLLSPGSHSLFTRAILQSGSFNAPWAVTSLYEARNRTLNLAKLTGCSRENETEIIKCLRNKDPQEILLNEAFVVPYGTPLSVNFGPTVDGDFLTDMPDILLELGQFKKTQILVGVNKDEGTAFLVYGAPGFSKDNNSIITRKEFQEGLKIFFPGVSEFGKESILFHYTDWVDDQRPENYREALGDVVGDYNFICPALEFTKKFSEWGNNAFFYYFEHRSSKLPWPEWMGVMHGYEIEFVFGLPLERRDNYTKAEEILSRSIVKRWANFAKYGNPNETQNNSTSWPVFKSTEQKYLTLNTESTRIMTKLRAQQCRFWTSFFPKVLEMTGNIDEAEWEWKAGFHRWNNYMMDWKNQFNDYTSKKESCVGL
Description: The ChEs inhibitory activities based on Ellman's method were assessed using previously described methods.[[15b]] Acetylcholinesterase (electric eel, […]) inhibition assays were conducted with ATCI (10 mM) and DTNB (10 mM). The experiment required adding 50 μL of AChE in Tris‐HCl buffer (pH 8.0), 100 μL substrate, and 50 μL of the sample dissolved in DMSO (10 % in Tris‐HCl buffer) to the wells. For BChE inhibition, mixtures contained 30 μL of 10 mM DTNB, 5 μL of BChE, 30 μL of 10 mM BTChCl (10 mM), and 10 μL of samples.
All samples were dissolved in 10 % DMSO, and the experiment was performed in triplicate.

[2] = MTT assay, Aβ1‐42‐induced toxicity in PC12 cells; type: cell-based, Rattus norvegicus; details: rat; PC12 cells, CHT1 20 μM, after 48 h, MTT; read-out: Viability percentage of that of the control
Description: (§1) Rattus norvegicus pheochromocytoma PC12 cells (Pastor Institute, Iran) were cultured in Dulbecco's modified Eagle's medium (DMEM) supplemented with 10 % fetal bovine serum (FBS) and 1 % penicillin/streptomycin (Gibco) at 37 °C with 5 % CO2. PC12 cells were treated with different concentrations of CHT1 for 12, 24, or 48 hours, and promising results were obtained.
(§2) In addition, the Aβ1‐42 peptides were diluted in water and preaggregated at 37 °C for 7 days before use. The cellular AD model was successfully constructed in vitro by incubating PC12 cells with 100 μM aggregated Aβ for 24 hours. DMSO (50 μL) and 0.5 mg/mL MTT (10 μL) stock solution were added to each well for 4 hours of incubation. After 30 minutes, the plates were shaken, and the optical density was measured at 570 nm using an ELISA reader (Biotech). The MTT assay used by Pirali et al.,[23] which underwent slight modifications, yielded promising results.

PC12 cells [3] = experiment: MTT assay, Aβ1‐42‐induced toxicity in PC12 cells; type: cell-based, Rattus norvegicus; details: 0.31–20 μM CHT1, 12, 24 and 48 h
Description: as §1, §2

p‐Tau/Tau = experiment: Western blot of p‐Tau/Tau in Aβ‐exposed PC12 cells; type: cell-based, Rattus norvegicus; details: for Decrease of p‐Tau/Tau compared with the Aβ group: Aβ1‐42 100 μM
Description: (§3) PC12 cells were seeded in a 6‐well plate, treated CHT1 at concentrations of 5 and 8 μM for 24 hours, washed with cold PBS, and lysed with lysis buffer for 30 minutes on ice. After centrifugation at 12,000×g for 10 minutes at 4 °C, the lysates were transferred to new tubes. The Bradford assay was utilized to determine the protein concentration.[24] SDS–PAGE was used to separate the denatured proteins, which were subsequently transferred to PVDF membranes. The membranes were blocked with nonfat dry milk in PBS containing 0.1 % Tween‐20 (PBST) and then incubated overnight at 4 °C with primary antibodies against p‐Taul/Tau, HSP70, and β‐actin as a control. Subsequently, the membranes were exposed to a secondary antibody conjugated with horseradish peroxidase (HRP) for 2 hours at room temperature. Using the densitometric scanning technique in the ImageJ program, the density of the protein bands in the relative direction was determined.

HSP70 = experiment: Western blot of HSP70 in Aβ‐exposed PC12 cells; type: cell-based, Rattus norvegicus; details: for Decrease of HSP70 expression compared with the Aβ group: Aβ1‐42 100 μM
Description: as §3

PC12 cells [4] = experiment: Growth of PC12 cells in response to treatments (Figure 5); type: cell-based, Rattus norvegicus; details: CHT1 pretreatment 5 and 8 μM in the presence of Aβ, 24 hours
[5] = Western blotting, CHT1 5 and 8 μM
[6] = PC12 cells, Aβ1‐42 100 μM alone

Question: For `COc1ccc(C=C2SC(O)=NC2=O)cc1` [CHT1, 5‐(4‐Methoxybenzylidene)thiazolidine‐2,4‐dione], which “Antioxidant capacity (FRAP)” value [1] is on record?
Answer: Its value is 0.78 mmol Fe^2+/g.

Question: And the IC50 (BChE)?
Answer: The IC50 was 69.1 nM.

Question: And the viability at 48 h, 20 μM [2]?
Answer: The viability at 48 h, 20 μM was 66.5%.

Question: And the “Acute toxicity in PC12 cells” value (PC12 cells [3])?
Answer: Its value is “acute toxicity was not observed”.

Question: And the “Effect of pretreatment on Aβ1‐42‐induced cell death” value (PC12 cells [3]; PC12 cells, Aβ1‐42 100 μM)?
Answer: Its value is “significant reduction in Aβ1‐42‐induced cell death in a dose‐dependent manner”.

Question: And the “Decrease of p‐Tau/Tau compared with the Aβ group” value (p‐Tau/Tau; PC12 cells, 5 μM)?
Answer: Its value is 2.26 fold.

Question: And the “Decrease of p‐Tau/Tau compared with the Aβ group” value (p‐Tau/Tau; PC12 cells, 8 μM)?
Answer: Its value is 2.01 fold.

Question: What about the “p‐Tau expression level” value (p‐Tau/Tau; [5]) of the same molecule?
Answer: The value was “downregulated”.

Question: And the “Decrease of HSP70 expression compared with the Aβ group” value (from here on “Decrease of HSP70 expression”) (HSP70; PC12 cells, 5 μM)?
Answer: The value was 2.1 fold.

Question: What about the “Decrease of HSP70 expression” value (HSP70; PC12 cells, 8 μM) of the same molecule?
Answer: The value was 2.26 fold.

Question: And the HSP70 expression level (HSP70; [5])?
Answer: The HSP70 expression level was “downregulated”.

Question: And the “Density of PC12 cells compared with Aβ (100 μM)” value (PC12 cells [4])?
Answer: Its value is “increased the density of PC12 cells”.

Question: With `O=C1N=C(O)SC1=Cc1ccc(Cl)cc1` [CHT2, 5‐(4‐Chlorobenzylidene)thiazolidine‐2,4‐dione] as the molecule, how does the IC50 (BChE) read?
Answer: The IC50 was 125 nM.

Question: With `O=C1NC(=O)C(=Cc2cccc(O)c2)S1` [CHT3, 5‐(3‐Hydroxybenzylidene)thiazolidine‐2,4‐dione] as the molecule, how does the “Antioxidant capacity (FRAP)” value [1] read?
Answer: Its value is 0.41 mmol Fe^2+/g.

Question: What about the IC50 (BChE) of the same molecule?
Answer: The IC50 was 81.9 nM.

Question: Which results are given for `O=C1NC(=O)C(=Cc2ccccc2O)S1` [CHT4, 5‐(2‐Hydroxybenzylidene)thiazolidine‐2,4‐dione]?
Answer: Antioxidant capacity (FRAP) [1]: 0.45 mmol Fe^2+/g; IC50 (BChE): 102 nM

Question: With `O=C1NC(=O)C(=Cc2cccc3ccccc23)S1` [CHT5, 5‐((Naphthalene‐1‐yl)methylene)thiazolidine‐2,4‐dione] as the molecule, how does the “Antioxidant capacity (FRAP)” value [1] read?
Answer: Its value is 0.26 mmol Fe^2+/g.

Question: And the IC50 (BChE)?
Answer: The IC50 was 141 nM.

Question: For `COc1cc2c(cc1OC)C(=O)C(CC1CCN(Cc3ccccc3)CC1)C2` (centres unmarked) [Donepezil, donepezil, reference compound], which “Decrease of HSP70 expression” value (HSP70; PC12 cells, donepezil 75 μM (positive control)) is on record?
Answer: The value was 1.92 fold.

Question: For `O=C1O[C@H]([C@@H](O)CO)C(O)=C1O` [ascorbic acid, reference compound], which “Antioxidant capacity (FRAP)” value [1] is on record?
Answer: Its value is 1.15 mmol Fe^2+/g.

Question: What does the source list for “amyloid beta 1–42 [Aβ1‐42, reference compound]”?
Answer: p‐Tau/Tau ratio greater than in the control group (p‐Tau/Tau; [6]): 4.96 fold; HSP70 level greater than in the control group (HSP70; [6]): 3.35 fold
